The source of these data is US12404295B2, “(Hetero)aryl-methyl-thio-beta-D-galactopyranoside derivatives” (Idorsia Pharmaceuticals Ltd, priority 2019, dated 2025).

SMILES strings stand for the structures. Read-outs that look alike come from different tables or passages of the source.

In one experiment the target is human Gal-3 (hGal-3) (Homo sapiens (Human), UniProt P17931). The experiment in a line: competitive binding assay: biotinylated hGal-3 binding to microplate-adsorbed asialofetuin (ASF). On the procedure:
If not explicitly mentioned otherwise, the inhibition data refer to the binding of biotinylated human Gal-3 (hGal-3).
(§1) Evaluation of Compound Inhibitory Activity (IC50)
The inhibitory activity of compounds is determined in competitive binding assays.
Briefly, compounds are serially diluted in DMSO (working dilutions).
(§2) Plates are incubated for 3 hours at 4° C., then washed with cold assay buffer (3×50 uL), incubated for 1 hour with 25 μL/well of a streptavidin-peroxidase solution (diluted in assay buffer to 80 ng/mL) at 4° C., followed by further washing steps with assay buffer (3×50 uL). Finally, 25 μL/well of ABTS substrate is added.
(§3) The calculated IC50 values may fluctuate depending on the daily assay performance. Fluctuations of this kind are known to those skilled in the art. IC50 values from several measurements are given as mean values.

The target in a further experiment is human Gal-1 (hGal-1) (Homo sapiens (Human), UniProt P09382). Kind of experiment: competitive binding assay: biotinylated hGal-1 binding to microplate-adsorbed asialofetuin (ASF). The note with it: Table 15; read-out: IC50 (Galectin-1 inhibition). The procedure:
Inhibition data of the epimers R and S of selected Examples are also listed.
as §1
The inhibitory activity of compounds is determined in competitive binding assays. This spectrophotometric assay measures the binding of biotinylated human Gal-3 (hGal-3) or human Gal-1 (hGal-1), respectively, to a microplate-adsorbed glycoprotein, asialofetuin (ASF) (Proc Natl Acad Sci USA. 2013 Mar. 26; 110(13):5052-7.).
Briefly, compounds are serially diluted in DMSO (working dilutions). ASF-coated 384 well plates are supplemented with 22.8 μL/well of biotinylated hGal-3 or hGal-1 in assay buffer (i.e. 300-1000 ng/mL biotinylated hGal-3 or hGal-1) to which 1.2 μL of compound working dilutions are added and mixed.
as §2, §3

Setting [1] is: Gal-3 inhibition, binding of biotinylated hGal-3 to ASF, mean values, read-out: IC50.

human Gal-1 (hGal-1), sequence (P09382 whole entry): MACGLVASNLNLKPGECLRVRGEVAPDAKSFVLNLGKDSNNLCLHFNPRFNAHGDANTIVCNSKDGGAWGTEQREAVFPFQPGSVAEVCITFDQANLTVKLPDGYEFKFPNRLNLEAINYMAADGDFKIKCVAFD
human Gal-3 (hGal-3), sequence (P17931 whole entry): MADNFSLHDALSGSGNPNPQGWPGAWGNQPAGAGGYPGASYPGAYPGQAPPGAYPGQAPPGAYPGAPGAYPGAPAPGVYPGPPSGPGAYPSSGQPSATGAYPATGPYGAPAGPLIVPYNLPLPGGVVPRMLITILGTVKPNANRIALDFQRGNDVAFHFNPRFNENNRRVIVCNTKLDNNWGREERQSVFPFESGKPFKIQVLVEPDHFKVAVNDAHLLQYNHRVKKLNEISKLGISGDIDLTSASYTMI

Consider `CO[C@@H]1[C@@H](n2cc(-c3cc(F)c(F)c(F)c3)nn2)[C@@H](O)[C@@H](CO)O[C@H]1S[C@@H](c1nocc1C)C1(O)CCCCC1` [Example 2.39.120S.I., (2R,3R,4S,5R,6S)-6-(((S)-(1-Hydroxycyclohexyl)(4-methylisoxazol-3-yl)methyl)thio)-2-(hydroxymethyl)-5-methoxy-4-(4-(3,4,5-trifluorophenyl)-1H-1,2,3-triazol-1-yl)tetrahydro-2H-pyran-3-ol], for which the concentration for half-maximal inhibition (IC50) (as a rule, the concentration that gives 50% inhibition) on human Gal-3 (hGal-3) (Table 10, 2-OMe-Gal inhibitors, read-out: IC50 (Gal-3 inhibition)) was 12.5 µM; on human Gal-1 (hGal-1), 27.3 µM.

`CC(C)(O)[C@@H](S[C@@H]1O[C@H](CO)[C@H](O)[C@H](n2cc(-c3cc(F)c(F)c(F)c3)nn2)[C@H]1O)c1cccnc1C(F)(F)F` [Example 2.31.118S., (2S,3R,4S,5R,6R)-2-(((S)-2-Hydroxy-2-methyl-1-(2-(trifluoromethyl)pyridin-3-yl)propyl)thio)-6-(hydroxymethyl)-4-(4-(3,4,5-trifluorophenyl)-1H-1,2,3-triazol-1-yl)tetrahydro-2H-pyran-3,5-diol]: the values for the half-inhibitory concentration (IC50) on human Gal-3 (hGal-3) (setting [1]) and on human Gal-1 (hGal-1) were 6.21 µM and 8.2 µM, respectively.

Consider `CO[C@@H]1[C@@H](n2cc(-c3cc(F)c(F)c(F)c3)nn2)[C@@H](O)[C@@H](CO)O[C@H]1S[C@@H](c1nccc(Cl)c1C)C1(O)CCC(F)(F)CC1` [Example 2.44.141S.I., (2R,3R,4S,5R,6S)-6-(((S)-(4-Chloro-3-methylpyridin-2-yl)(4,4-difluoro-1-hydroxycyclohexyl)methyl)thio)-2-(hydroxymethyl)-5-methoxy-4-(4-(3,4,5-trifluorophenyl)-1H-1,2,3-triazol-1-yl)tetrahydro-2H-pyran-3-ol], for which the half-maximal inhibitory concentration (IC50) came out at 3.5 µM at human Gal-3 (hGal-3) (Table 11, read-out: IC50 (Gal-3 inhibition)) and 10.5 µM at human Gal-1 (hGal-1).

Regarding `CO[C@@H]1[C@@H](n2cc(-c3cc(F)c(F)c(F)c3)nn2)[C@@H](O)[C@@H](CO)O[C@H]1SC(c1ncccc1Cl)C1(O)CCC(F)(F)CC1` (stereo partly drawn) [Example 2.44.137.I., (2R,3R,4S,5R,6S)-6-(((3-Chloropyridin-2-yl)(4,4-difluoro-1-hydroxycyclohexyl)methyl)thio)-2-(hydroxymethyl)-5-methoxy-4-(4-(3,4,5-trifluorophenyl)-1H-1,2,3-triazol-1-yl)tetrahydro-2H-pyran-3-ol], the half-inhibitory concentration (IC50) on human Gal-3 (hGal-3) (Table 9, 2-OMe-Gal inhibitors, read-out: IC50 (Gal-3 inhibition)) was found to be 0.14 µM; at human Gal-1 (hGal-1), 4.36 µM.

As for `COCC(S[C@@H]1O[C@H](CO)[C@H](O)[C@H](n2cc(-c3cc(F)c(F)c(F)c3)nn2)[C@H]1O)c1ccccc1` (stereo partly drawn) [Example 2.30.100.OMe, (2R,3R,4S,5R,6S)-2-(Hydroxymethyl)-6-((2-methoxy-1-phenylethyl)thio)-4-(4-(3,4,5-trifluorophenyl)-1H-1,2,3-triazol-1-yl)tetrahydro-2H-pyran-3,5-diol, reference compound], the half-maximal inhibitory concentration (IC50) on human Gal-3 (hGal-3) (setting [1]) amounted to 2.9 µM; on human Gal-1 (hGal-1) it was 56.3 µM.

For `CO[C@@H]1[C@@H](n2cc(-c3cc(F)c(F)c(F)c3)nn2)[C@@H](O)[C@@H](CO)O[C@H]1SC(c1ncccc1C)C1(O)CCC2(CCOCC2)CC1` (stereo partly drawn) [Example 2.72.126.I., 9-((((2S,3R,4S,5R,6R)-5-Hydroxy-6-(hydroxymethyl)-3-methoxy-4-(4-(3,4,5-trifluorophenyl)-1H-1,2,3-triazol-1-yl)tetrahydro-2H-pyran-2-yl)thio)(3-methylpyridin-2-yl)methyl)-3-oxaspiro[5.5]undecan-9-ol], on human Gal-1 (hGal-1), the IC50 was found to be 0.73 µM.

For `OC[C@H]1O[C@@H](S[C@@H](c2ccccc2Cl)C2(O)CCC(F)(F)CC2)[C@H](O)[C@@H](n2cc(-c3cc(F)c(F)c(F)c3)nn2)[C@H]1O` [Example 2.44.111S., (2S,3R,4S,5R,6R)-2-(((S)-(2-Chlorophenyl)(4,4-difluoro-1-hydroxycyclohexyl)methyl)thio)-6-(hydroxymethyl)-4-(4-(3,4,5-trifluorophenyl)-1H-1,2,3-triazol-1-yl)tetrahydro-2H-pyran-3,5-diol], the IC50 at human Gal-1 (hGal-1) worked out at 47.5 µM.

`CC(C)Cc1c([C@@H](S[C@@H]2O[C@H](CO)[C@H](O)[C@H](n3cc(-c4cc(F)c(F)c(F)c4)nn3)[C@H]2O)C2(O)CCC(F)(F)CC2)noc1C1CC1` [Example 2.44.131 R., (2S,3R,4S,5R,6R)-2-(((R)-(5-Cyclopropyl-4-isobutylisoxazol-3-yl)(4,4-difluoro-1-hydroxycyclohexyl)methyl)thio)-6-(hydroxymethyl)-4-(4-(3,4,5-trifluorophenyl)-1H-1,2,3-triazol-1-yl)tetrahydro-2H-pyran-3,5-diol]: the IC50 on human Gal-1 (hGal-1) came to 0.09 µM.

In the case of `CC(C)Cc1c(C(S[C@@H]2O[C@H](CO)[C@H](O)[C@H](n3cc(-c4cc(F)c(F)c(F)c4)nn3)[C@H]2O)C2(O)CCC(F)(F)CC2)noc1C1CC1` (stereo partly drawn) [Example 2.44.131., (2S,3R,4S,5R,6R)-2-(((5-Cyclopropyl-4-isobutylisoxazol-3-yl)(4,4-difluoro-1-hydroxycyclohexyl)methyl)thio)-6-(hydroxymethyl)-4-(4-(3,4,5-trifluorophenyl)-1H-1,2,3-triazol-1-yl)tetrahydro-2H-pyran-3,5-diol], on human Gal-1 (hGal-1), the IC50 was 0.22 µM.

As to `Cc1nc([C@@H](S[C@@H]2O[C@H](CO)[C@H](O)[C@H](n3cc(-c4cc(F)c(F)c(F)c4)nn3)[C@H]2O)C(C)(C)O)c(C)s1` [Example 2.31.123R., (2S,3R,4S,5R,6R)-2-(((R)-1-(2,5-Dimethylthiazol-4-yl)-2-hydroxy-2-methylpropyl)thio)-6-(hydroxymethyl)-4-(4-(3,4,5-trifluorophenyl)-1H-1,2,3-triazol-1-yl)tetrahydro-2H-pyran-3,5-diol], the IC50 on human Gal-1 (hGal-1) was found to be 1.19 µM.

For the compound `Cc1nc([C@H](S[C@@H]2O[C@H](CO)[C@H](O)[C@H](n3cc(-c4cc(F)c(F)c(F)c4)nn3)[C@H]2O)C(C)(C)O)c(C)s1` [Example 2.31.123S., (2S,3R,4S,5R,6R)-2-(((S)-1-(2,5-Dimethylthiazol-4-yl)-2-hydroxy-2-methylpropyl)thio)-6-(hydroxymethyl)-4-(4-(3,4,5-trifluorophenyl)-1H-1,2,3-triazol-1-yl)tetrahydro-2H-pyran-3,5-diol], the IC50 at human Gal-1 (hGal-1) was found to be 29.4 µM.

On to `CO[C@@H]1[C@@H](n2cc(-c3cc(F)c(F)c(F)c3)nn2)[C@@H](O)[C@@H](CO)O[C@H]1S[C@H](c1ccccc1C(F)(F)F)[C@]1(O)CCOC(C)(C)C1` [Example 2.43.112RS.I., (2R,3R,4S,5R,6S)-6-(((R)-((S)-4-Hydroxy-2,2-dimethyltetrahydro-2H-pyran-4-yl)(2-(trifluoromethyl)phenyl)methyl)thio)-2-(hydroxymethyl)-5-methoxy-4-(4-(3,4,5-trifluorophenyl)-1H-1,2,3-triazol-1-yl)tetrahydro-2H-pyran-3-ol], for which the IC50 on human Gal-1 (hGal-1) amounted to 1.3 µM.

`CO[C@@H]1[C@@H](n2cc(-c3cnc(F)c(C)c3)nn2)[C@@H](O)[C@@H](CO)O[C@H]1SC(c1ncccc1C)C1(O)CCC(F)(F)CC1` (stereo partly drawn) [Example 24.44.126.I, (2R,3R,4S,5R,6S)-6-(((4,4-Difluoro-1-hydroxycyclohexyl)(3-methylpyridin-2-yl)methyl)thio)-4-(4-(6-fluoro-5-methylpyridin-3-yl)-1H-1,2,3-triazol-1-yl)-2-(hydroxymethyl)-5-methoxytetrahydro-2H-pyran-3-ol]: the half-inhibitory concentration (IC50) on human Gal-1 (hGal-1) was found to be 0.16 µM.

Consider `OC[C@H]1O[C@@H](S[C@H](c2ccccc2Cl)C2(O)CCC(F)(F)CC2)[C@H](O)[C@@H](n2cc(-c3cc(F)c(F)c(F)c3)nn2)[C@H]1O` [Example 2.44.111R., (2S,3R,4S,5R,6R)-2-(((R)-(2-Chlorophenyl)(4,4-difluoro-1-hydroxycyclohexyl)methyl)thio)-6-(hydroxymethyl)-4-(4-(3,4,5-trifluorophenyl)-1H-1,2,3-triazol-1-yl)tetrahydro-2H-pyran-3,5-diol], for which the half-inhibitory concentration (IC50) on human Gal-1 (hGal-1) stood at 1.06 µM.

As to `Cc1nc(C(S[C@@H]2O[C@H](CO)[C@H](O)[C@H](n3cc(-c4cc(F)c(F)c(F)c4)nn3)[C@H]2O)C(C)(C)O)c(C)s1` (stereo partly drawn) [Example 2.31.123., (2S,3R,4S,5R,6R)-2-((1-(2,5-Dimethylthiazol-4-yl)-2-hydroxy-2-methylpropyl)thio)-6-(hydroxymethyl)-4-(4-(3,4,5-trifluorophenyl)-1H-1,2,3-triazol-1-yl)tetrahydro-2H-pyran-3,5-diol], the 50% inhibitory concentration (IC50) at human Gal-1 (hGal-1) is 1.74 µM.

For the compound `OC[C@H]1O[C@@H](S[C@@H](c2ccccc2Cl)C2(O)CCC(F)(F)CC2)[C@H](O)[C@@H](n2cc(-c3cc(F)c(F)c(F)c3)nn2)[C@H]1O` [Example 2.44.111S, (2S,3R,4S,5R,6R)-2-(((S)-(2-Chlorophenyl)(4,4-difluoro-1-hydroxycyclohexyl)methyl)thio)-6-(hydroxymethyl)-4-(4-(3,4,5-trifluorophenyl)-1H-1,2,3-triazol-1-yl)tetrahydro-2H-pyran-3,5-diol], the IC50 at human Gal-3 (hGal-3) (Table 5, read-out: IC50 (Gal-3 inhibition)) is 18.4 µM.
